These results are taken from publication PMC8002477, “Bioactive Indole Diketopiperazine Alkaloids from the Marine Endophytic Fungus Aspergillus sp. YJ191021” (Marine Drugs, 2021).

Converted amounts (≈) assume the structure as drawn. Like-named read-outs stand apart in the source and are kept apart here.

Data set [1] deals with THP-1 cells. Description: MTT viability of THP-1 cells (safe concentration). As to conditions: concentration range of THP-1 cells viability over 80%, 36 h.
The next data set deals with Fusarium oxysporum. As to the kind of experiment: Antimicrobial MIC assay, Fusarium oxysporum. The class given is cell-based. As to conditions: 28 °C, 3-4 days, read-out: MIC, Fo (Fusarium oxysporum).
In data set [2] the test system is Propionibacterium acnes (ATCC6919). As to the kind of experiment: Antimicrobial assay against P. acnes (to exclude false anti-inflammatory activity). As to conditions: Cutibacterium acnes, ATCC6919, read-out: P. acnes MIC.
Data set [3] deals with Xanthomonas oryzae pv. oryzae. Description: microbe, parasite or virus in culture. The class given is cell-based. The following applies: 24 h, read-out: MIC, Xe (Xanthomonas oryzae pv. oryzae).
The next data set has as its system Vibrio anguillarum. Description: microbe, parasite or virus in culture. In kind it is cell-based. As to conditions: read-out: MIC, Va (Vibrio anguillarum).
Another data set concerns Vibrio parahaemolyticus. As to the kind of experiment: microbe, parasite or virus in culture. The class given is cell-based. The following applies: read-out: MIC, Vp (Vibrio parahaemolyticus).
The next data set concerns Aeromonas hydrophilia. Description: microbe, parasite or virus in culture. The following applies: read-out: MIC, Ah (Aeromonas hydrophilia). The class given is cell-based.
In data set [4] the test system is Xanthomonas oryzae pv. oryzicola. Description: microbe, parasite or virus in culture. The class given is cell-based. As to conditions: 24 h, read-out: MIC, Xa (Xanthomonas oryzae pv. oryzicola).
Another data set has as its system Edwardsiella tarda. As to the kind of experiment: microbe, parasite or virus in culture. As to conditions: read-out: MIC, Et (Edwardsiella tarda). In kind it is cell-based.
Data set [5] deals with Colletotrichum gloeosporioides. As to the kind of experiment: Antimicrobial MIC assay, Colletotrichum gloeosporioides. The class given is cell-based. As to conditions: 28 °C, 3-4 days, read-out: MIC, Cg (Colletotrichum gloeosporioides).
For data set [6], the system named is THP-1 cells. The following applies: human, 36 h.
A further data set concerns Rhizoctonia solani. As to the kind of experiment: Antimicrobial MIC assay, Rhizoctonia solani. The class given is cell-based. As to conditions: 28 °C, 3-4 days, read-out: MIC, Rs (Rhizoctonia solani).

`CC1(C)C=Cc2c(ccc3c2[N+]([O-])=C2C3=CC34NC(=O)C5(CCCN5C3=O)CC4C2(C)C)O1` (stereo not shown) [Compound 1, Asperthrin A]: the “THP-1 Cells SC (safe concentration)” value in the data set on THP-1 cells [1] lay in the range of 0 to 5 µM. Further, the MIC in the data set with Fusarium oxysporum was greater than 100 µg/mL; in data set [2] it was greater than 5 µM; in data set [3] it was 50 µg/mL (≈ 112 µM); with Vibrio anguillarum, 8 µg/mL (≈ 18 µM); in the data set with Vibrio parahaemolyticus, 16 µg/mL (≈ 35.9 µM); in the data set on Aeromonas hydrophilia it was 32 µg/mL (≈ 71.8 µM). Besides, the MIC is 12.5 µg/mL (≈ 28.1 µM) in [4], 16 µg/mL (≈ 35.9 µM) in the data set with Edwardsiella tarda and greater than 100 µg/mL in data set [5].
With `CC1=C(/C=C/C(C)=C/C=C/C(C)=C/C(=O)O)C(C)(C)CCC1` [Tretinoin, reference compound], the “THP-1 Cells SC (safe concentration)” value in the data set on THP-1 cells [6] lay in the range of 0 to 50 µM. In addition, the MIC in data set [2] was greater than 50 µM.
With `CC(=O)N1CCN(c2ccc(OCC3COC(Cn4ccnc4)(c4ccc(Cl)cc4Cl)O3)cc2)CC1` (stereo not shown) [Ketoconazole, ketoconazole, reference compound], the values for the MIC (with Fusarium oxysporum (agricultural pathogenic fungus); in the data set on Rhizoctonia solani (agricultural pathogenic fungus); in data set [5] (agricultural pathogenic fungus)) were 100 µg/mL (≈ 188 µM), 0.78 µg/mL (≈ 1.47 µM) and 12.5 µg/mL (≈ 23.5 µM), respectively.
Regarding `O=C(N[C@H](CO)[C@H](O)c1ccc([N+](=O)[O-])cc1)C(Cl)Cl` [Chloromycetin, reference compound], the MIC was 12.5 µg/mL (≈ 38.7 µM) in [3]; 0.5 µg/mL (≈ 1.55 µM) with Vibrio anguillarum; 2 µg/mL (≈ 6.19 µM) in the data set on Vibrio parahaemolyticus; 2 µg/mL (≈ 6.19 µM) with Aeromonas hydrophilia; 12.5 µg/mL (≈ 38.7 µM) in data set [4]; 2 µg/mL (≈ 6.19 µM) in the data set on Edwardsiella tarda.
`CC1(C)C=Cc2c(ccc3c2NC(=O)[C@@]32[C@H](O)[C@@]34NC(=O)[C@]5(CCCN5C3=O)C[C@H]4C2(C)C)O1` [Compound 9, sclerotiamide]: the “THP-1 Cells SC (safe concentration)” value in the data set on THP-1 cells [1] is 0 to 50 µM. Besides, the MIC in the data set on Fusarium oxysporum was greater than 100 µg/mL; with Rhizoctonia solani, 25 µg/mL (≈ 53.9 µM); in data set [2], greater than 50 µM; in data set [3], greater than 100 µg/mL; in data set [4], greater than 100 µg/mL; in data set [5], greater than 100 µg/mL.
Consider `CC1(C)C=Cc2c(ccc3c2NC24N5C(=O)C6(O)CCCN6C(=O)C5CC32OC(CO)C4(C)C)O1` (stereo not shown) [Compound 6, Asperthrin F], for which the “THP-1 Cells SC (safe concentration)” value in the data set on THP-1 cells [1] fell in the range of 0 to 50 µM. Moreover, the MIC in data set [2] was greater than 50 µM.
On to `CC1(C)C=Cc2c(ccc3c2N(O)C(=O)C32C(O)C34NC(=O)C5(CCCN5C3=O)CC4C2(C)C)O1` (stereo not shown) [Compound 10, notoamide H], for which the “THP-1 Cells SC (safe concentration)” value with THP-1 cells [1] was in the range of 0 to 50 µM. Further, the MIC in the data set on Fusarium oxysporum was greater than 100 µg/mL; in the data set with Rhizoctonia solani it was 25 µg/mL (≈ 52.1 µM); in data set [2] it was greater than 50 µM; in [3], greater than 100 µg/mL; in data set [4], greater than 100 µg/mL; in data set [5] it was greater than 100 µg/mL.
For `CC(=O)OC1C23NC(=O)C4(CCCN4C2=O)CC3C(C)(C)C12C(=O)Nc1c2ccc2c1C=CC(C)(C)O2` (stereo not shown) [Compound 5, Asperthrin E], the “THP-1 Cells SC (safe concentration)” value in the data set with THP-1 cells [1] is 0 to 40 µM. Moreover, the MIC in the data set with Fusarium oxysporum (agricultural pathogenic fungus) was greater than 100 µg/mL; in the data set on Rhizoctonia solani (agricultural pathogenic fungus), 25 µg/mL (≈ 49.4 µM); in [2], greater than 40 µM; in data set [3], greater than 100 µg/mL; in [4], greater than 100 µg/mL; in [5] (agricultural pathogenic fungus) it was greater than 100 µg/mL.
`CC1(C)C=Cc2c(ccc3c4c([nH]c23)C(C)(C)[C@@H]2C[C@]35CCCN3C(=O)[C@]2(NC5=O)[C@H]4O)O1` [Compound 12, notoamide R]: the “THP-1 Cells SC (safe concentration)” value in the data set with THP-1 cells [1] was 0 to 50 µM. The MIC in [2] is greater than 50 µM.
